Laboratory results: patent US20150374705A1, “Substances for treatment or relief of pain” (Shanghai Institues for Biological Sciences, priority 2012, published 2015)
Entries after “also recorded” stand apart in the source; their conditions may differ. Where two headings read alike, the source gives them in different places.

Legend:
[1] = Tissue distribution, brain/plasma ratio by LC-MS; format: in vivo, rat; conditions: for Kp at 1 h: sc, 3 mg/kg, subcutaneous injection, 1 hour after injection; for Kp at 1 h / Kp: rat
Experimental: The second method was to measure the tissue distribution of the substance to be measured in animal tissues. Firstly the candidate substance was administrated to animals by injection (or oral administration). The brain tissue and plasma tissue were extracted 0.25-2.0 hours after injection. liquid Chromatograph Mass SpectrometerL-MS was used to measure the concentration of the drug. If the brain/plasma ratio of the compound is less than 0.5, then the candidate substance is a potential drug for treating pain with fewer side effects.
Meanwhile, the inventors detected the distribution of these compounds in the tissue of rats. Firstly the substances to be measured were subcutaneously injected into the body of animals. Then brain tissue and plasma tissue were extracted 1 hour after injection. Ls-MS was used to measure the concentration of drugs. If the brain/plasma ratio of the compound is less than 0.1, then the candidate substance is a potential drug for treating pain with fewer side effects.

[2] = tested on: CFA induced inflammatory pain model rats (mechanical pain); assay: CFA induced inflammatory pain model, mechanical pain threshold; format: in vivo; conditions: rat, 3 mg/kg injection, 7 days after CFA, 1 hour after administration
[3] = tested on: CFA induced inflammatory pain model rats (heat pain); assay: CFA induced inflammatory pain model, heat pain threshold; format: in vivo; conditions: rat, 3 mg/kg injection, 3 days after CFA, 1 hour after administration
[4] = tested on: SNI model rats (neuropathic pain); assay: Spared nerve injury (SNI) model, neuropathic pain, mechanical pain threshold; format: in vivo; conditions: rat; for Neuropathic pain (SNI model), analgesic effect: 3 mg/kg subcutaneous, 14 days after SNI, 1 hour after administration
Experimental: Male SD rats (200-250 g) were used, 6 per group in the cage. All the animals were placed under 12 hours light/cycle (i.e. 12 hours light and 12 hours dark in each day), free to food and water. All the experiments were conducted under the condition that the observers were blind to pharmaceutical treatment.
Spared nerve injury model (SNI): 10% chloral hydrate was injected intraperitoneally to anesthetize rats. […] The muscle was longitudinally separated to expose the core of sciatic nerve and the branching below: tibial nerve, common peroneal nerve and sural nerve. The tibial nerve and common peroneal nerve were ligatured and cut and small sural nerve was retained, meanwhile preventing any injury. The muscle and skin were sutured layer by layer, and then antibiotics were injected intraperitoneally for antibacterial purpose. For detailed methods, please refer to Decosterd I and Woolf C J. Spared nerve injury: an animal model of persistent peripheral neuropathic pain. 2000 August; Pain 87(2):149-58.
Method for detecting mechanical hyperalgesia in rats: firstly CFA solution was injected in the thenar of rats. After 24 hours, mechanical hyperalgesia quantitative detection was adopted to measure the paw withdrawal of rats to normal and harmless mechanical stimulation. Evaluation was conducted according to reference (Chaplan S R et al., Quantitative assessment of tactile allodynia in the rat paw. J Neurosci Methods. 1994 July; 53(1):55-63). In this method, the von Frey fibers with different bending force (equivalent to the range of 1-50 g force) were used to apply harmless mechanical stimulation. The rats were placed in organic glass box with metal mesh plate, and the von Frey fibers were applied on the surface of leg thenar. The von Frey fibers were applied vertically to the surface of thenar to generate the force that will trigger slight resistance to the leg. 2-3 seconds were maintained for every leg thenar. If the leg withdrew suddenly, positive records were recorded. The threshold was the mean of the weight that caused 50% paw withdrawal response (5-6 paw withdrawal/10 stimulations) in overall 10 stimulations.
Compounds MRK 016, C2, C3, C4, C5, C6, C7, C8 or α5IA (A5I) were dissolved in 70% PGE400 (PGE400:water=70:30 in volume). For injection dose, MRK016 was 2 mg/kg body weight; A5I was 3 mg/kg body weight; C2, C3, C4, C5, C6, C7 and C8 were 3 mg/kg body weight.
MRK016-M3 was dissolved in 90% PGE400 (PGE400:water=90:10 in volume). The doses were 10 mg/kg, 3 mg/kg, 1 mg/kg and 0.3 mg/kg, respectively for oral administration.
The method for behavioral data statistics was unpaired t-test. *, p<0.05, represents significant difference.

[5] = brain and plasma extracted 0.25-2.0 hours after injection, LC-MS

Cc1ncn2c1Cn1ncnc1-c1cc(Br)ccc1-2
Kp at 1 h ([1]; brain and plasma, LC-MS): < 0.2 | CFA induced inflammatory pain model (mechanical pan), analgesic effect [2]: Significant analgesic effect | CFA induced inflammatory pain model (heat pain), analgesic effect [3]: Significant analgesic effect | Neuropathic pain (SNI model), analgesic effect [4]: Significant analgesic effect

FC(F)c1ncn2c1Cn1ncnc1-c1cc(I)ccc1-2
CFA induced inflammatory pain model (mechanical pan), analgesic effect [2]: Significant analgesic effect | CFA induced inflammatory pain model (heat pain), analgesic effect [3]: Significant analgesic effect | Neuropathic pain (SNI model), analgesic effect [4]: Significant analgesic effect

Cc1ncn2c1Cn1ncnc1-c1cc(I)ccc1-2
Kp at 1 h ([1]; brain and plasma, LC-MS): < 0.1 | CFA induced inflammatory pain model (mechanical pan), analgesic effect [2]: Significant analgesic effect | CFA induced inflammatory pain model (heat pain), analgesic effect [3]: Significant analgesic effect | Neuropathic pain (SNI model), analgesic effect [4]: Significant analgesic effect

Clc1ncn2c1Cn1ncnc1-c1cc(I)ccc1-2
Kp at 1 h ([1]; brain and plasma, LC-MS): < 0.1 | CFA induced inflammatory pain model (mechanical pan), analgesic effect [2]: Significant analgesic effect | CFA induced inflammatory pain model (heat pain), analgesic effect [3]: Significant analgesic effect | Neuropathic pain (SNI model), analgesic effect [4]: Significant analgesic effect

Clc1ccc2c(c1)-c1ncnn1Cc1c(Cl)ncn1-2
Kp at 1 h ([1]; in vivo, LC-MS): > 0.2 | CFA induced inflammatory pain model (mechanical pan), analgesic effect [2]: Significant analgesic effect | CFA induced inflammatory pain model (heat pain), analgesic effect [3]: Significant analgesic effect | Neuropathic pain (SNI model), analgesic effect [4]: Significant analgesic effect

FC(F)c1ccc2c(c1)-c1ncnn1Cc1c(Cl)ncn1-2
CFA induced inflammatory pain model (mechanical pan), analgesic effect [2]: Significant analgesic effect | CFA induced inflammatory pain model (heat pain), analgesic effect [3]: Significant analgesic effect | Neuropathic pain (SNI model), analgesic effect [4]: Significant analgesic effect

Cc1ncn2c1Cn1ncnc1-c1cc(C(F)F)ccc1-2
CFA induced inflammatory pain model (mechanical pan), analgesic effect [2]: Significant analgesic effect | CFA induced inflammatory pain model (heat pain), analgesic effect [3]: Significant analgesic effect | Neuropathic pain (SNI model), analgesic effect [4]: Significant analgesic effect

Cc1ncn2c1Cn1ncnc1-c1cc(Cl)ccc1-2
Kp at 1 h ([1]; brain and plasma, LC-MS): 0.2 | CFA induced inflammatory pain model (mechanical pan), analgesic effect [2]: Significant analgesic effect | CFA induced inflammatory pain model (heat pain), analgesic effect [3]: Significant analgesic effect | Neuropathic pain (SNI model), analgesic effect [4]: Significant analgesic effect

CC(C)(C)C1C(OCc2ccccn2)=NN2C(c3cc(CO)on3)=NN=CC12 (stereo not drawn) [Compound C2, (3-(3-tert-butyl-2-(2-pyridylmethoxyl)-3,3a-2H-pyrazolo[1,5-d][1,2,4]triazin-7-yl)isoxazole-5-yl)methanol]
CFA induced inflammatory pain model (mechanical pan), analgesic effect ([2]; 3 mg/kg): efficiently treat pain; also recorded: efficiently suppressed heat pain or mechanical pain response | CFA induced inflammatory pain model (heat pain), analgesic effect ([3]; 3 mg/kg): efficiently treat chronic pain; also recorded: efficiently suppressed heat pain or mechanical pain response | Neuropathic pain (SNI model), analgesic effect ([4]; 3 mg/kg): efficiently treat pain; also recorded: efficiently suppressed neuropathic pain

CC(C)(C)C1C(OCc2cccnc2)=NN2C(c3cc(CO)on3)=NN=CC12 (stereo not drawn) [Compound C3, (3-(3-tert-butyl-2-(3-pyridylmethoxyl)-3,3a-2H-pyrazolo[1,5-d][1,2,4]triazin-7-yl)isoxazole-5-yl)methanol]
CFA induced inflammatory pain model (mechanical pan), analgesic effect ([2]; 3 mg/kg): efficiently treat pain; also recorded: efficiently suppressed heat pain or mechanical pain response | CFA induced inflammatory pain model (heat pain), analgesic effect ([3]; 3 mg/kg): efficiently treat chronic pain; also recorded: efficiently suppressed heat pain or mechanical pain response | Neuropathic pain (SNI model), analgesic effect ([4]; 3 mg/kg): efficiently treat pain; also recorded: efficiently suppressed neuropathic pain

OCc1cc(-c2nnc3c4ccccc4c(OCc4cccnc4)nn23)no1 [Compound C6, {3-[6-(Pyridin-3-ylmethoxy)-[1,2,4]triazolo[3,4-a]phthalazin-3-yl]-isoxazol-5-yl}-methanol]
CFA induced inflammatory pain model (mechanical pan), analgesic effect ([2]; 3 mg/kg): efficiently inhibit nociceptive response; also recorded: efficiently suppressed heat pain or mechanical pain response | CFA induced inflammatory pain model (heat pain), analgesic effect ([3]; 3 mg/kg): efficiently inhibit nociceptive response; also recorded: efficiently suppressed heat pain or mechanical pain response | Neuropathic pain (SNI model), analgesic effect ([4]; 3 mg/kg): efficiently inhibit nociceptive response; also recorded: efficiently suppressed neuropathic pain

OCc1cc(-c2nnc3c4ccccc4c(OCc4ccncc4)nn23)no1 [Compound C7, {3-[6-(Pyridin-4-ylmethoxy)-[1,2,4]triazolo[3,4-a]phthalazin-3-yl]isoxazol-5-yl}-methanol]
CFA induced inflammatory pain model (mechanical pan), analgesic effect ([2]; 3 mg/kg): efficiently inhibit nociceptive response; also recorded: efficiently suppressed heat pain or mechanical pain response | CFA induced inflammatory pain model (heat pain), analgesic effect ([3]; 3 mg/kg): efficiently inhibit nociceptive response; also recorded: efficiently suppressed heat pain or mechanical pain response | Neuropathic pain (SNI model), analgesic effect ([4]; 3 mg/kg): efficiently inhibit nociceptive response; also recorded: efficiently suppressed neuropathic pain

FC(F)c1ncn2c1Cn1ncnc1-c1cc(Br)ccc1-2 [drawing 27]
Passing blood brain barrier [1, 5]: slightly passing blood brain barrier | Kp ([1]; other: injection (or oral administration), brain and plasma extracted 0.25-2.0 hours after injection, LC-MS, read-out: brain/plasma ratio): < 0.5

Clc1ncn2c1Cn1ncnc1-c1cc(Br)ccc1-2 [drawing 28]
Passing blood brain barrier [1, 5]: more slightly passing blood brain barrier | Kp ([1]; in vivo): < 0.5

Clc1ncn2c1Cn1ncnc1-c1cc(Br)ccc1-2 [drawing 57]
Kp at 1 h ([1]; brain and plasma, LC-MS): < 0.1 | CFA induced inflammatory pain model (mechanical pan), analgesic effect [2]: Significant analgesic effect | CFA induced inflammatory pain model (heat pain), analgesic effect [3]: Significant analgesic effect | Neuropathic pain (SNI model), analgesic effect [4]: Significant analgesic effect

FC(F)c1ncn2c1Cn1ncnc1-c1cc(Br)ccc1-2 [drawing 58]
Kp at 1 h ([1]; brain and plasma, LC-MS): > 0.2 | CFA induced inflammatory pain model (mechanical pan), analgesic effect [2]: Significant analgesic effect | CFA induced inflammatory pain model (heat pain), analgesic effect [3]: Significant analgesic effect | Neuropathic pain (SNI model), analgesic effect [4]: Significant analgesic effect

NCC1(CC(=O)O)CCCCC1 [gabapentin]
Suppression of neuropathic pain ([4]; 11 days after SNI model): efficiently suppressed neuropathic pain
